The subject of assay [1] is HIF-1α. The assay can be described thus: HIF-1α detection in HEK 293 and HT144 cells treated with DBM plus metals. The class given is cell-based, human. Particulars: cells exposed to DBM plus the metal. From the text:
In subsequent studies, similar data has been found for HEK 293 human embryonic kidney cells and HT144 melanoma cells treated with either DBM or Zn^2+. […] This finding appears to be unique to the combination of DBM with Zn^2+ since it was not observed in cells exposed to DBM plus other metals such as Fe^3+, Co^2+, Cd^2+, and Ni^2+. Furthermore, this unexpected reversal of the independent effects of DBM and Zn^2+ was not blocked by hypoxia. These observations are counterintuitive since inhibitors of HIF P4H should impede degradation of HIF-1α. Also, these two HIF P4H inhibitors appear to work in concert under inhibitory conditions to down-regulate HIF-1α with little effect on HIF-1α mRNA levels.

The test system of a further assay is HIF-1α and VEGF. The following applies: LNCaP cells, ambient O2; cited from earlier work.
Another assay relates to HIF-1α mRNA. The assay can be described thus: Semiquantitative PCR of HIF-1α mRNA levels in HEK 293 cells under normoxia. The class given is cell-based, human. The following applies: HEK 293, normoxia, 2 hours, serum free media. On the procedure: The effects of DBM alone, Zn^2+ alone and DBM plus Zn^2+ on HIF-1αmRNA levels were assessed by semiquantitative PCR in extracts of HEK 293 kidney cells under normoxia for 2 hours in serum free media (FIG. 17). […] HIF-1αZ mRNA levels were not found to be increased (data not shown).

Assay [2] relates to HIF-1α. Description: Western blot analysis of HIF-1α in HEK 293 cells with or without proteosome inhibitor MG-132, ambient oxygen. Format: cell-based, human. Particulars: HEK 293, ambient oxygen; for HIF-1α detection by Western blot: 2 hours, agent without further addition; for HIF-1α detection by Western blot with MG-132 added: agent plus MG-132. On the procedure: Proteosomal degradation of HIF-1α was assessed in HEK 293 embryonic kidney cells treated with DBM alone, Zn^2+ alone or the combination under ambient oxygen in the presence or absence of the proteosome inhibitor MG-132 (FIG. 18). […] (FIG. 18, lane 5). […] The HIF-1α isoforms are more clearly resolved on the gel from FIG. 18 than FIG. 15. This may be due to differences in the time the gels were run.
(Immunoblotting shows a protein as a band on a membrane.)

The test system of assay [3] is HIF-1α. The assay can be described thus: Western blot analysis of HIF-1α in HEK 293 cells under hypoxic conditions. The class given is cell-based, human. The following applies: for HIF-1α levels by Western blot: 2 hours under 1% O2. On the procedure: (§1) HT 144 melanoma cells (FIG. 16(A)) and HEK 293 embryonic kidney cells (FIG. 16(B)) were incubated for 2 hours under 1% O2. HIF-1α […].

The subject of assay [4] is HIF-1α. The assay can be described thus: Western blot analysis of HIF-1α in HEK 293 cells under ambient oxygen. The class given is cell-based, human. The following applies: HEK 293, ambient oxygen, 1 hr. The procedure:
The first unexpected finding was that the combination of DBM plus Zn^2+ reversed the induced stabilization of HIF-1α observed when the cells were exposed to either DBM or Zn^2+ alone under normoxic conditions (FIG. 15). HEK 293 embryonic kidney cells were incubated at ambient levels of oxygen for 1 hr with the addition of DBM alone, Zn^2+ alone or the combination. HIF-1α was not detected at baseline by Western blot (FIG. 15, lane 1).
One possible explanation for the loss of HIF-1α stabilization in cells treated with DBM plus Zn^2+ is chelation. DBM is a bidentate metal chelator that could itself bind to Zn^2+ in a 2:1 stochiometric ratio, however, the observed loss of HIF-1α stabilization occurred when either DBM or Zn^2+ was present in 50 μM excess at ratios of 4:1 (FIG. 15, lane 3) and 1:1 (FIG. 15, lane 5), respectively. […] Presumably, the increases in HIF-1α in FIG. 15 resulted from HIF P4H inhibition leading to diminished prolyl-4-hydroxylation and disruption of proteosomal degradation.

The test system of assay [5] is HIF-1α. Description: Western blot analysis of HIF-1α in HT144 melanoma cells under hypoxic conditions. Particulars: HT 144 cells; for HIF-1α levels by Western blot: 2 hours under 1% O2. The class given is cell-based, human. On the procedure:
as §1

Assay [6] deals with HIF-1α. The assay can be described thus: Western blot analysis of HIF-1α in VHL (−/−) RCC-4 renal cell carcinoma cells, normoxic. The class given is cell-based, human. Particulars: RCC-4 VHL (−/−), 1 hour. An excerpt:
As expected, HIF-1α was detected by Western blot under normoxic conditions (FIG. 19, lane 1). […] These experiments have not been performed as yet in RCC4 cells with DBM alone or in RCC4 cells transfected with pVHL.

In another assay the test system is VEGF. Particulars: patients with metastatic kidney cancer, high doses; cited from earlier work.
VEGF, sequence (P15692 207-311 limits assumed): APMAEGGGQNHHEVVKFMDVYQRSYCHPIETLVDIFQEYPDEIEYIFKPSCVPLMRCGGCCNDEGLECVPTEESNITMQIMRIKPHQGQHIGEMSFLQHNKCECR

Residues, ends and D or L forms follow the SMILES beside them. *: point of attachment. Cbz = O=C(OCc1ccccc1)*

For the compound `[Cd+2]` [Cd^2+], in the assay on HIF-1α [1], the “Loss of HIF-1α detection on simultaneous treatment with DBM plus metal” value (“Loss of HIF-1α detection” below) is given as “not observed”.
In the case of `[Co+2]` [Co^2+, reference compound], in the assay with HIF-1α [1], the “Loss of HIF-1α detection” value was “not observed”. Also, the “HIF-1α and VEGF levels” value in the assay with HIF-1α and VEGF was “rapidly increase”.
Turning to `O=C(CC(=O)c1ccccc1)c1ccccc1` [DBM, 1,3-diphenylpropane-1,3-dione], the “HIF-1α mRNA levels (PCR product)” value in the assay on HIF-1α mRNA is reported as “not significantly different from baseline”. Also, the “HIF-1α detection by Western blot” value in the assay with HIF-1α [2] was “readily detected”. For the same compound, the “HIF-1α detection by Western blot with MG-132 added” value in the assay on HIF-1α [2] is “did not stabilize these other forms of HIF-1α”. Further, the “HIF-1α levels by Western blot” value was “significantly increased the levels of HIF-1α” in the assay on HIF-1α [3], “significant increase in HIF-1α levels” in the assay on HIF-1α [4] (DBM alone at 100 μM) and “significantly increased the levels of HIF-1α” with HIF-1α [5]. Also, the “HIF-1α and VEGF levels” value with HIF-1α and VEGF is given as “rapidly increase”.
As for `[Fe+3]` [Fe^3+, reference compound], the “HIF-1α levels by Western blot, metal added to DBM” value with HIF-1α [3] (2 hours under 1% O2, with DBM) is listed as “decreased slower migrating isoforms of HIF-1α”; in the assay on HIF-1α [5] (2 hours under 1% O2, with DBM), “did not significantly alter the effect of DBM on HIF-1α levels”. In the assay with HIF-1α [1], the “Loss of HIF-1α detection” value was “not observed”.
Turning to `CC(C)C[C@@H](C=O)NC(=O)[C@H](CC(C)C)NC(=O)[C@H](CC(C)C)NC(=O)OCc1ccccc1` [MG-132, reference compound] (Cbz-Leu-Leu-Leu-aldehyde), the “HIF-1α detection by Western blot” value in the assay with HIF-1α [2] was “accumulation of a broad range of proteins that possibly represent ubiquitinated forms of HIF-1α”; in the assay on HIF-1α [6], “Stabilization of HIF-1α was enhanced”.
With `[Ni+2]` [Ni^2+], in the assay with HIF-1α [1], the “Loss of HIF-1α detection” value is on record as “not observed”.
`[Zn+2]` [Zn^2+]: the “HIF-1α mRNA levels (PCR product)” value in the assay with HIF-1α mRNA was “not significantly different from baseline”. In the assay with HIF-1α [2], the “HIF-1α detection by Western blot” value is “readily detected”. In addition, in the assay on HIF-1α [2], the “HIF-1α detection by Western blot with MG-132 added” value is “did not stabilize these other forms of HIF-1α”. Besides, the “HIF-1α levels by Western blot” value in the assay with HIF-1α [3] is listed as “little effect”; in the assay with HIF-1α [4] (Zn^2+ alone 25 μM to 100 μM), “increased HIF-1α levels in a dose dependent manner”; with HIF-1α [5], “decreased the more rapidly migrating isoforms of HIF-1α”.
With “bevacizumab: humanized monoclonal antibody specific for VEGF”, the Clinical response result in the assay with VEGF was “Clinical responses have been observed”.

These data come from US20050119243A1, “HIF-1 inhibitors and methods of use thereof” (priority 2003, published 2005).
